The numbers were not newly measured in patent US20140213664A1, “PROCESSES, PRODUCTS AND METHODOLOGIES FOR MAKING AND USING NOVEL BIOADVANTAGED SWEETENERS” (priority 2013, published 2014), which cites them from elsewhere.

Series [1] relates to STZ-induced diabetic rats.
The conditions of series [2]: injected hypodermically.

For `O=CC=Cc1ccccc1` [Cinnamaldehyde], in series [1], the HDL-cholesterol result is “increasing”; the antihyperglycemic effect entry is on record as “significant antihyperglycemic effect”; the “total cholesterol and triglyceride levels” value is recorded as “lowering”.

As to `O=C(CCc1ccc(O)cc1)c1c(O)cc(O)cc1O[C@@H]1O[C@H](CO)[C@@H](O)[C@H](O)[C@H]1O` [Phlorizin], in series [2], the glycosuria result is given as “produces glycosuria”.
